# Values quoted from earlier work as cited in PMC4369175 (Journal of photochemistry and photobiology. B, Biology, 2015).
# Read-outs that look alike come from different tables or passages of the source.
# Legend:
# [1] = standard value
Structure (SMILES),Φf of fluorescence standard ([1]; in ethanol),ΦΔ singlet oxygen quantum yield of the reference standard,Φf of fluorescence standard ([1]; in methanol)
CC/N=c1\cc2oc3cc(NCC)c(C)cc3c(-c3ccccc3C(=O)OCC)c-2cc1C [Rhodamine 6G],0.95,,
CN(C)c1ccc2nc3ccc(=[N+](C)C)cc-3sc2c1 [methylene blue],,0.52,0.03
